Test [1] concerns the target T1, catalytic domain of the recombinant TACE protein (Homo sapiens, UniProt P78536).
T1 construct: The catalytic domain of the recombinant TACE protein was expressed and purified; made in house
Briefly: TACE FRET assay using TACE cat. Format: biochemical. In short, it runs like this: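 Initial fluorescence rate of Abz-[sequence]-Dpa pro-TNF-α peptide cleavage (substrate from 2 mM stock) read after adding substrate to enzyme (1 ug/ml) preincubated 10 min, room temperature, with inhibitor.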

Test [2] concerns the target T2, recombinant human catalytic domain of MMP-1 (Homo sapiens, UniProt P03956).
T2 construct: the recombinant human catalytic domain of MMP-1
T2 sequence (P03956 100-269 limits assumed): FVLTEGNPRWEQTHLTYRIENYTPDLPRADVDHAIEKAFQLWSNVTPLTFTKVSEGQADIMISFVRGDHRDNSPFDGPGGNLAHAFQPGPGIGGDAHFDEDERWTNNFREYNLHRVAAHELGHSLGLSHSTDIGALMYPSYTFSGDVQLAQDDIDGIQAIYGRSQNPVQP
Description: In-vitro fluorescence (FRET) assay of MMP-1 activity. The format is biochemical. An excerpt: In-Vitro Fluorescence Assay of MMP-1 Activity
(§1) A continuous assay was used in which the substrate is a synthetic peptide containing a fluorescent group (7-methoxycoumarin; Mca) that is quenched by energy transfer to a 2,4-dinitrophenyl group. See Knight, C. G. et al., FEBS Lett. (1992) 296: 263-266, incorporated herein by reference in its entirety. When the peptide was cleaved by MMP, a large increase in fluorescence was observed. The source of enzyme in the assay was the recombinant human catalytic domain of MMP-1. See Zhang, Y et al., Journal of Pharmacology and Experimental Therapeutics (JPET) (2004) 309:348-355, incorporated by reference in its entirety. The substrate used was Mca-PQGL-(3-[2,4-dinitrophenyl]-L-2,3-diaminopropionyl)-AR-OH (denoted as Wammp-5, custom synthesized by AnaSpec, Inc., San Jose, Calif.). The assay buffer consisted of 50 mM Hepes (pH 7.4), 100 mM NaCl, 5 mM CaCl2, and 0.005% Brij-35. Each well of black polystyrene 96-well plates contained a 200 μl reaction mixture consisting of assay buffer, purified MMP (final concentration of 25 ng/ml, prepared by diluting with the assay buffer), and varied concentrations of inhibitor (prepared by serially diluting a given inhibitor in DMSO in 96-well polypropylene plate). The plates were then incubated at 30° C. for 15 minutes. The enzymatic reactions were initiated by adding the substrate to a final concentration of 20 μM, and mixing 10 times with a pipette. The final DMSO concentration in the assay was 6.0%. The initial rate of the cleavage reaction was determined at 30° C. with a fluorescence plate reader (excitation filter of 330 nm and emission filter of 395 nm) immediately after substrate addition.
(§2) Plots of the inhibitor concentration versus the percent inhibition were fit to the following equation: y=(a−d)/[1+(x/c)^b]+d, a general sigmoidal curve with Hill slope, a to d. x is the inhibitor concentration under test. “y” is the percent inhibition. “a” is the limiting response as x approaches zero. As x increases without bound, y tends toward its limit d. “c” is the inflection point (IC50) for the curve. That is, y is halfway between the lower and upper asymptotes when x=c. “b” is the slope factor or Hill coefficient.

Test [3] deals with T3, recombinant human catalytic domain of MMP-13 (Homo sapiens, UniProt P45452).
T3 construct: catalytic domain of MMP-13 (165 amino acids, residues 104-268, 19 kDa)
Description: biochemical.
Text: as §1, with “When the peptide was cleaved by MMP, a large increase in fluorescence was observed. The source of enzyme in the assay was the recombinant human catalytic domain of MMP-1.” left out
as §2
In-Vitro Fluorescence Assay of MMP-13 Activity
See Zhang, Y et al., Journal of Pharmacology and Experimental Therapeutics (JPET) (2004) 309:348-355, incorporated by reference in its entirety.

Test [4] deals with T4, recombinant human catalytic domain of MMP-14 (Homo sapiens, UniProt P50281).
T4 construct: 177 amino acids corresponding to Tyr89-Gly265 of mature human enzyme; 20 kDa; purchased Chemicon International, Inc. CC1041
Briefly: biochemical.
Text: as §1, with “When the peptide was cleaved by MMP, a large increase in fluorescence was observed. The source of enzyme in the assay was the recombinant human catalytic domain of MMP-1.” left out
as §2
In-Vitro Fluorescence Assay of MMP-14 Activity

Test [5] deals with T5, recombinant human MMP-2 (Homo sapiens, UniProt P08253).
T5 construct: purchased Oncogene Research Products (Calbiochem) PF023
Description: In-vitro fluorescence (FRET) assay of MMP-2 activity. The format is biochemical.
Text: as §1, with “When the peptide was cleaved by MMP, a large increase in fluorescence was observed. The source of enzyme in the assay was the recombinant human catalytic domain of MMP-1.” left out
as §2
In-Vitro Fluorescence Assay of MMP-2 Activity

For test [6], the system named is TNF-α Secretion in Raw Cells (Raw 264.7 cells). Description: Cell-based assay for inhibition of TNF-α secretion in Raw cells. The note with it: read-out: TNF-α Secretion in Raw Cells IC50. The procedure: Cell-Based Assay for Inhibition of TNF-A Secretion in Raw Cells
(§3) The basic measurement of the assay is the percentage of inhibition of TNF-α secretion and the IC50 determination by a fitting with the model-39 of LSW data analysis tool.
Raw 264.7 cells (ATCC Cat No. TIB-71) are maintained in DMEM medium containing 10% of serum, P/S, and Glutamine. […] For testing compounds, cells are cultured to confluence and are seeded the day before the experiment in 24 well culture dishes at 0.5 to 1 million/ml/well. On the next morning, the medium from the overnight culture is replaced with the fresh growth medium. The compounds are added at various concentrations at the 0.2% of final DMSO concentrations (10 μl of a 20% DMSO solution containing testing compounds is added to each well). The cells are pre-incubated with compounds for 1 hour. LPS (Sigma, L2262) is added to cells at a final concentration of 100 ng/ml (10 μl of a […] LPS solution freshly diluted from a 1 mg/ml LPS stock solution in PBS is added to each well) and cells are further incubated for 4 hours at 37° C. One milliliter (1 ml) of the supernatant was collected, cells are spun down and the supernatants are frozen at −80° C. until use.
The TNF-α and other proinflammatory cytokines were detected by ELISA assay according to the manufacturer's instruction (Biosource International, Inc., Camarillo, Calif.) (For IL-1b measurement in Raw cells, one round of freeze and thaw of the cells was required.)

The test system of test [7] is TNF-α Secretion in Human Whole Blood. Description: Human whole blood assay for LPS-induced TNF-α secretion. The format is cell-based. The conditions noted are these: fresh human blood, LPS 100 ng/ml, TNF-α by ELISA.
Text: as §3

Where [8] appears, read: TACE FRET assay, catalytic domain of recombinant TACE, read-out: TACE IC50.
Setting [9] is: Raw 264.7 cells, LPS 100 ng/ml, 4 hours, TNF-α by ELISA.

pIC50: −log10 of the molar value. Read-outs that look alike come from different tables or passages of the source. Some results are limits rather than exact numbers.

T1 sequence (P78536 223-474 limits assumed): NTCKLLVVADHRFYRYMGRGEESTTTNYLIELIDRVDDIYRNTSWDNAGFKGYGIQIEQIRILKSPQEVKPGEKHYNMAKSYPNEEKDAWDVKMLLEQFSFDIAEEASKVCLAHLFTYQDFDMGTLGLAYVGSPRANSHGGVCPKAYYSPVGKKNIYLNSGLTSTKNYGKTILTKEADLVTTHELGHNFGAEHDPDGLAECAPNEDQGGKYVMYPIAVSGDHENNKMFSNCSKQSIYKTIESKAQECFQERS
T5 sequence (P08253 110-660): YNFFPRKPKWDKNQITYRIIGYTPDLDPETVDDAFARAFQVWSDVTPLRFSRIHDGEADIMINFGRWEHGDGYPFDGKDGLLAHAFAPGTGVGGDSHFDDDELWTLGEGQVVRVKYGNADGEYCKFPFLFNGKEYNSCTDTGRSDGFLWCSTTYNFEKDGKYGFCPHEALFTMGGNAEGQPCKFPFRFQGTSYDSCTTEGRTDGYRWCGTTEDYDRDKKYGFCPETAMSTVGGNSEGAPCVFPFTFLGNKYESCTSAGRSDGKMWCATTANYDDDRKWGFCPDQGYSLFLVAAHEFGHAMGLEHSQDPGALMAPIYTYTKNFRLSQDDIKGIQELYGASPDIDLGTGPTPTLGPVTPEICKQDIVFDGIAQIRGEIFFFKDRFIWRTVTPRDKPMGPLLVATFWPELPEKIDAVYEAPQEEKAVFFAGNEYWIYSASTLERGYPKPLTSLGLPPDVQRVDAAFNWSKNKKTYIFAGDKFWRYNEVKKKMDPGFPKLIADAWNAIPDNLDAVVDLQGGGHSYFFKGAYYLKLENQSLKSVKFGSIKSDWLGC

Regarding `CC#CCOc1ccc(S(=O)(=O)NC(Cc2c[nH]c3ccc(OC)cc23)C(=O)O)cc1` (racemic) [Example 4, N-{[4-(but-2-ynyloxy)phenyl]sulfonyl}-5-methoxytryptophan], the pIC50 was 6.44 in test [1], 4.64 in test [4] and 5.11 in test [5]. Moreover, the inhibition at 1000 µM in test [2] (read-out: MMP-1 Inhibition) was 33%. Further, in test [3] (read-out: MMP-13 Inhibition), the inhibition at 15 µM is 50%.
For the molecule `CC#CCOc1ccc(S(=O)(=O)N[C@H](Cc2cn(Cc3ccc(OC)cc3)c3ccccc23)C(=O)O)cc1` [Example 35, N-{[4-(but-2-ynyloxy)phenyl]sulfonyl}-1-(4-methoxybenzyl)-D-tryptophan], the pIC50 in test [1] (setting [8]) was 7.10; in test [6] (Mus musculus, RAW264.7, 4 h), under 4.22; in test [4], 4.89. Besides, in test [2] (read-out: MMP-1 Inhibition), the inhibition at 33 µM was determined as 14%.
Regarding `CC#CCOc1ccc(S(=O)(=O)NC(Cc2cn(Cc3ccc(OC)cc3)c3ccc(C)cc23)C(=O)O)cc1` (centres unmarked) [Example 47, N-{[4-(but-2-ynyloxy)phenyl]sulfonyl}-1-(4-methoxybenzyl)-5-methyltryptophan], the inhibition at 67 µM in test [2] (read-out: MMP-1 Inhibition) was 30%. Moreover, the values for the pIC50 in test [4] and in test [5] were 4.94 and 6.18, respectively.
Take `CC#CCOc1ccc(S(=O)(=O)N[C@@H](Cc2c[nH]c3ccc(C)cc23)C(=O)O)cc1` [Example 218, N-{[4-(but-2-ynyloxy)phenyl]sulfonyl}-5-methyl-L(or D)-tryptophan]: the pIC50 was 6.85 in test [1] (setting [8]); under 4.30 in test [7]; 5.15 in test [6] (setting [9]); 5.74 in test [3]; 5.17 in test [4]; 6.57 in test [5]. For the same molecule, the “MMP-1 Inhibition” value in test [2] (Conc. 160 μM) is on record as 30%.
For the molecule `CC#CCOc1ccc(S(=O)(=O)N[C@@H](Cc2c[nH]c3ccc(OC)cc23)C(=O)O)cc1` [Example 221, N-{[4-(but-2-ynyloxy)phenyl]sulfonyl}-5-methoxy-D(or L)-tryptophan], the pIC50 in test [1] (setting [8]) is 6.85; in test [6] (setting [9]), 4.24; in test [3], 4.87; in test [4], 4.68; in test [5], 5.90. The “MMP-1 Inhibition” value in test [2] (Conc. 83 μM) is 9%.
As for `CC#CCOc1ccc(S(=O)(=O)N[C@@H](Cc2c[nH]c3ccc(OCc4ccccc4)cc23)C(=O)O)cc1` [Example 224, 5-(benzyloxy)-N-{[4-(but-2-ynyloxy)phenyl]sulfonyl}-L(or D)-tryptophan], in test [2] (Conc. 83 μM), the “MMP-1 Inhibition” value came to 19%. Moreover, the pIC50 in test [3] was 5.35; in test [4], 4.71; in test [5], 5.61.

Values taken from patent US7576222B2, “Alkynyl-containing tryptophan derivative inhibitors of TACE/matrix metalloproteinase” (priority 2004, dated 2009).
